Data taken from patent US9556201B2, “Bicyclic pyridines and analogs as sirtuin modulators” (GLAXOSMITHKLINE LLC, priority 2009, dated 2017).

How the values were obtained:
SIRT1 = molecular target: T1, SIRT1 (Homo sapiens, UniProt Q96EB6); assay: Mass spectrometry based assay to identify modulators of SIRT1 activity (deacetylation of p53-based acetylated peptide substrate); format: biochemical; conditions: for Emax: 25 min, SIRT1 activation, read-out: % FOLD ACT. (percent maximum fold activation)
T1 sequence (Q96EB6 1-747): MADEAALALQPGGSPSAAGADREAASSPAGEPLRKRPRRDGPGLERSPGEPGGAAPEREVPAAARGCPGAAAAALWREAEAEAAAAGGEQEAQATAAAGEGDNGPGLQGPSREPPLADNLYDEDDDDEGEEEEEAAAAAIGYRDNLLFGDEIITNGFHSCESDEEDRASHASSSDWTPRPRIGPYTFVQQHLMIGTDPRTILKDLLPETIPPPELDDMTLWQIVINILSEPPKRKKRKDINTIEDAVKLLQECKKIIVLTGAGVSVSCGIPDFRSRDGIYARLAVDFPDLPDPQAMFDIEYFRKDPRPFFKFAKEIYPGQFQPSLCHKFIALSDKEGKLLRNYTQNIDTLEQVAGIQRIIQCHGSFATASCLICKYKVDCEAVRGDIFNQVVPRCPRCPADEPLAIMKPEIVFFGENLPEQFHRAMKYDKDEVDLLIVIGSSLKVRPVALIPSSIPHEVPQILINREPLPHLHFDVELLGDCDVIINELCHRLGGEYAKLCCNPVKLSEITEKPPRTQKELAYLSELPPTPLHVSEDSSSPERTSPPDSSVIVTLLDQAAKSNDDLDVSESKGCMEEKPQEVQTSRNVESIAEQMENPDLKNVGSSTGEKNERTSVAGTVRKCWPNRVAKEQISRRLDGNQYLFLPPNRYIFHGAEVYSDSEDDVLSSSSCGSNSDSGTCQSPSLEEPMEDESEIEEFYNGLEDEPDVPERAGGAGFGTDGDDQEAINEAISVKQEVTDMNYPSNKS
Procedure, shortened: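 His-tagged human SIRT1 (10 nM, E. coli) incubated 25 min at 25 °C with […] p53-derived acetylated 5TMR peptide and 120 μM βNAD+ in pH 8 Tris-acetate buffer, then formic acid-stopped. Mass spectrometry quantifies acetylated vs deacetylated peptide; nicotinamide and DMSO controls.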

TNF = TNF IC50 (column of Table 1; method not in the text shown); format: cell-based

COc1nccc(NC(=O)N2CCCC(=O)c3ccc(-c4cccc(C(F)(F)F)c4)nc32)n1 [Compound 830]
EC1.5 (concentration giving 1.5-fold activation) (SIRT1): < 1000 nM | Emax (SIRT1): > 200% | IC50 (TNF): ≥ 20 µM

O=C(Nc1cc(OCC(O)CO)ccn1)N1CCc2ccc(-c3cccc(C(F)(F)F)c3)nc21 (stereo not drawn) [Compound 875]
EC1.5 (concentration giving 1.5-fold activation) (SIRT1): < 1000 nM | Emax (SIRT1): > 200% | IC50 (TNF): < 20 µM

Cc1cc(NC(=O)N2CCOc3cnc(-c4cccc(C(F)(F)F)c4)nc32)cc(C)n1 [Compound 711]
EC1.5 (concentration giving 1.5-fold activation) (SIRT1): < 1000 nM | Emax (SIRT1): > 200% | IC50 (TNF): ≥ 20 µM

Cc1csc(NC(=O)N2CCC(C)(C)c3ccc(-c4cccc(C(F)(F)F)c4)nc32)n1 [Compound 839]
EC1.5 (concentration giving 1.5-fold activation) (SIRT1): < 1000 nM | Emax (SIRT1): > 200% | IC50 (TNF): < 20 µM

O=C(Nc1cccnc1)N1CCOc2ccc(-c3cccc(C(F)(F)F)c3)nc21 [Compound 887]
EC1.5 (concentration giving 1.5-fold activation) (SIRT1): < 1000 nM | Emax (SIRT1): > 200% | IC50 (TNF): ≥ 20 µM

CCN1CCCN(C(=O)Nc2ccnc(C)c2)c2nc(-c3cccc(Cl)c3)ccc21 [Compound 795]
EC1.5 (concentration giving 1.5-fold activation) (SIRT1): < 1000 nM | Emax (SIRT1): > 200% | IC50 (TNF): < 20 µM

Cc1csc(NC(=O)N2CCC(C)c3ccc(-c4cccc(C(F)(F)F)c4)nc32)n1 (stereo not drawn) [Compound 787]
EC1.5 (concentration giving 1.5-fold activation) (SIRT1): < 1000 nM | Emax (SIRT1): > 200% | IC50 (TNF): ≥ 20 µM

O=C(Nc1cc(OCC(O)CO)ccn1)N1CCC(F)(F)c2ccc(-c3cccc(C(F)(F)F)c3)nc21 (stereo not drawn) [Compound 860]
EC1.5 (concentration giving 1.5-fold activation) (SIRT1): < 1000 nM | Emax (SIRT1): > 200% | IC50 (TNF): < 20 µM

O=C(Nc1ccnc(OCC(O)CO)n1)N1CCc2ccc(-c3cccc(C(F)(F)F)c3)nc21 (stereo not drawn) [Compound 874]
EC1.5 (concentration giving 1.5-fold activation) (SIRT1): < 1000 nM | Emax (SIRT1): > 200% | IC50 (TNF): ≥ 20 µM

Cc1csc(NC(=O)N2CCc3ccc(-c4cccc(C(F)(F)F)c4)nc32)n1 [Compound 851]
EC1.5 (concentration giving 1.5-fold activation) (SIRT1): < 1000 nM | Emax (SIRT1): > 200% | IC50 (TNF): ≥ 20 µM

CC1(C)CCN(C(=O)Nc2ccnc(OC[C@H](O)CO)n2)c2nc(-c3cccc(C(F)(F)F)c3)ccc21 [Compound 845]
EC1.5 (concentration giving 1.5-fold activation) (SIRT1): < 1000 nM | Emax (SIRT1): > 200% | IC50 (TNF): < 20 µM

O=C(Nc1cnc(OC[C@H](O)CO)cn1)N1CCCOc2ccc(-c3cccc(Cl)c3)nc21 [Compound 878]
EC1.5 (concentration giving 1.5-fold activation) (SIRT1): < 1000 nM | Emax (SIRT1): > 200% | IC50 (TNF): < 20 µM

O=C(Nc1cccnc1)N1CCCc2ccc(-c3cccnc3)nc21 [Compound 886]
EC1.5 (concentration giving 1.5-fold activation) (SIRT1): 1000 to 25000 nM | Emax (SIRT1): > 200% | IC50 (TNF): ≥ 20 µM

O=C(Nc1ccncn1)N1CCc2ccc(-c3cccc(C(F)(F)F)c3)nc21 [Compound 850]
EC1.5 (concentration giving 1.5-fold activation) (SIRT1): < 1000 nM | Emax (SIRT1): > 200% | IC50 (TNF): ≥ 20 µM

O=C(Nc1ccncc1F)N1CCc2ccc(-c3cccc(C(F)(F)F)c3)nc21 [Compound 870]
EC1.5 (concentration giving 1.5-fold activation) (SIRT1): < 1000 nM | Emax (SIRT1): > 200% | IC50 (TNF): < 20 µM
